Measurements: US20040137436A1, “Method for measuring drug resistance” (priority 2000, published 2004)
Read-outs that look alike come from different tables or passages of the source.

System: HIV-1
Format: cell-based
Conditions: for Geometric Mean Phenotype: fold change in IC50 vs wild type; for Average Phenotype (log): log fold resistance
[1] = RT codon 41 ANY, 184 ANY, 215 ANY
[2] = RT codon 41 WT, 184 V/I, 215 F/Y
[3] = RT codon 41 WT, 184 V/I, 215 WT
[4] = RT codon 41 WT, 184 WT, 215 F/Y

For Cc1cn([C@H]2C[C@H](N=[N+]=[N-])[C@@H](CO)O2)c(=O)[nH]c1=O [AZT, zidovudine], the “effect of inclusion of the 184V mutation on magnitude of AZT resistance” value (184V together with AZT resistance mutations, each cluster (FIG. 7)) was “substantial reduction”, the “Geometric Mean Phenotype” value [1] was 3.9 fold and the “Geometric Mean Phenotype” value (RT codon 41 L, 184 WT, 215 F/Y) was 27.7 fold. The “Geometric Mean Phenotype” value (RT codon 41 L, 184 WT, 215 WT) was 1.7 fold, the “Geometric Mean Phenotype” value [2] was 6.2 fold and the “Geometric Mean Phenotype” value [3] was 1.3 fold. The “Geometric Mean Phenotype” value [4] was 13.4 fold, the “Geometric Mean Phenotype” value (RT codon 41 WT, 184 WT, 215 WT) was 1.3 fold and the “mean fold resistance, increase” value (genetic clusters with multiple mutations conferring AZT resistance (FIG. 7)) was about 100 fold. For the same compound, the “Average Phenotype (log)” value [1] was 0.59, the “Average Phenotype (log)” value (RT codon 41 L, 184 WT, 215 F/Y) was 1.44 and the “Average Phenotype (log)” value (RT codon 41 L, 184 WT, 215 WT) was 0.24. The “Average Phenotype (log)” value [2] was 0.79, the “Average Phenotype (log)” value [3] was 0.10 and the “Average Phenotype (log)” value [4] was 1.13. For the same compound, the “Average Phenotype (log)” value (RT codon 41 WT, 184 WT, 215 WT) was 0.12 and the “susceptibility profile of genetic cluster” value (virus harbouring the 184V mutation (FIG. 7)) was “slightly reduced level of susceptibility”.
